# Values quoted from earlier work, collected in patent publication US20090118293A1 (priority 2004, published 2009).
# Where a name gives a salt, the structure may show the parent alone.
Solubility in alcohol (alcohol),Solubility in ether (ether),Structure (SMILES),Solubility in water,"Solubility in organic solvents (organic solvents such as ethanol, ether and chloroform)"
slightly soluble,very slightly soluble,NNc1nncc2ccccc12 [hydralazine hydrochloride],soluble,–
–,–,"O=[N+]([O-])O[C@H]1CO[C@H]2[C@@H]1OC[C@H]2O[N+](=O)[O-] [isosorbide dinitrate, 1,4,3,6-dianhydro-D-glucitol-2,5-dinitrate]",sparingly soluble,freely soluble
